Test results published in patent US11628162B2, “Methods of treating cancer with an FGFR inhibitor” (Incyte Corporation, priority 2019, dated 2023).
Several values for one entry are separate records, joined by “and”; a condition that tells them apart may be missing. Identical values can stand only once.

What was measured:
[1] = human, in vivo
[2] = Phase 1 drug-drug interaction study: single-dose pemigatinib PK alone or with itraconazole or rifampin
[3] = Phase 1 drug-drug interaction study: safety and tolerability (TEAEs); conditions: healthy male and female volunteers
Protocol: In addition, this study also evaluates the safety and tolerability of pemigatinib when administered alone or in combination with itraconazole or rifampin. Safety and tolerability is assessed by monitoring adverse events, vital signs, physical examinations, 12-lead ECGs, and clinical laboratory blood and urine sample assessments. Pharmacokinetic endpoints include tmax, AUC0-t, AUC0-∞, t1/2, CL/F, and Vz/F.
Vital signs (oral temperature; respiratory rate; automated, seated blood pressure; and pulse) are obtained at screening, check-in, and follow-up; at 0 hour (predose) on Days 1 and 8; and at approximately 1, 2, 3, 6, and 24 hours after the morning dose on Day 4 and Day 9. Clinical safety laboratory assessments are performed at screening; on Days −1, 2, 5, 9, 10, and 11; and at follow-up. A serum pregnancy is obtained at screening and follow-up. A urine pregnancy test is obtained at check-in for each visit for all women. On Day 8, a 12-lead ECG is performed predose, 2 hours postdose, and approximately 24 hours postdose. On other days, 12-lead ECGs are performed only at predose.
Vital signs (oral temperature; respiratory rate; automated, seated blood pressure; and pulse) are obtained at screening, check-in and follow-up; at 0 hour (predose) on Days 1 and 11; and at approximately 1, 2, 3, 6, and 24 hours after the morning dose on Days 4, 10, and 12. Clinical safety laboratory assessments are performed at screening; on Days −1, 2, 8, and 13; and at follow-up. A serum pregnancy test is obtained at screening and follow-up. A urine pregnancy test is obtained at check-in for each visit for all women. On Day 11, a 12-lead ECG is performed predose, 2 hours postdose, and approximately 24 hours postdose. On other days, 12-lead ECGs is performed only at predose.

[4] = Cohort 2: 13.5 mg pemigatinib alone or with rifampin 600 mg QD, geometric mean
[5] = Cohort 2: 13.5 mg pemigatinib alone or with rifampin 600 mg QD, mean ± SD

Structure (SMILES) | Pemigatinib AUC Ratio, Observed ([1]; po) | Pemigatinib Cmax Ratio, Observed ([1]; po) | AUC0-t [2, 4] | AUC0-∞ [2, 4] | CL/F [2, 4] | Cmax [2, 4] | t1/2 [2, 4] | AUC0-t [2, 5] | AUC0-∞ [2, 5] | CL/F [2, 5] | t1/2 [2, 5] | Tmax ([2]; Cohort 2: 13.5 mg pemigatinib alone or with rifampin 600 mg QD, median) | Cmax ([2]; Cohort 2: healthy volunteers n=18, single oral 13.5 mg pemigatinib fasted, alone or with rifampin 600 mg QD, mean ± SD) | Change in pemigatinib exposure on coadministration ([2]; with potent CYP3A4 inhibitor or inducer, healthy volunteers) | Decrease in half-life of pemigatinib following rifampin coadministration [1] | Safety and tolerability (overall conclusion) [3]
CCC(C)n1ncn(-c2ccc(N3CCN(c4ccc(OCC5COC(Cn6cncn6)(c6ccc(Cl)cc6Cl)O5)cc4)CC3)cc2)c1=O (stereo not shown) [Itraconazole, reference compound] | 1.88 | 1.17 | – | – | – | – | – | – | – | – | – | – | – | – | – | –
CCN1C(=O)N(c2c(F)c(OC)cc(OC)c2F)Cc2cnc3[nH]c(CN4CCOCC4)cc3c21 [Pemigatinib + rifampin] | – | – | 0.28 µM·h | 0.292 µM·h | 94.7 L/h | 66.9 nM | 4.7 h and 4.69 h | 0.289 ± 0.0749 µM·h | 0.301 ± 0.0755 µM·h | 97.5 ± 23.8 L/h | 5.05 ± 2.76 h | 1.00 h | 69.7 ± 20 nM | clinically significant decrease | 63% | safe and generally well tolerated
